In US6555356B2, “Methods for microbial regulation” (Unisearch Limited, priority 1995, dated 2003):
Converted amounts (≈) assume the structure as drawn.

Assays:
Type in all cases: cell-based
Helminthosporium sp. = assay: Fungal growth inhibition zone assay, Helminthosporium sp.
Protocol: (§1) In addition to the tests described above, the effects of selected compounds of the general formula 2 on growth of bacteria, one yeast (Candida albicans) and one fungus (Helminthosporium sp.) were assessed. Bacteria were grown in liquid media in the presence of different concentrations of furanones and growth measured via changes in optical density (OD). Fungal assays were done by inoculating agar plates with spores. These plates contained different concentrations of furanone compounds in wells within the plates. Zones of inhibition around these wells were measured after 48 hours.

Candida albicans = assay: Fungal growth inhibition zone assay, Candida albicans
Protocol: as §1

strain R130 [1] = assay: Marine isolate growth in liquid media, strain R130
Protocol: (§2) The effect on growth of Serratia liquefaciens by furanone compounds was also measured in liquid LB medium by comparing growth of cultures without the addition of compounds versus growth of cultures with added furanone compounds (100 μg/ml of compounds 1-13 (FIG. 3) in separate cultures). Growth was measured as optical density at 450 nm and followed over a 48 hr period.
(§3) Methods followed those described for Serratia liquefaciens (above). Inhibition of growth of these bacteria by furanones was assessed as above.

strain R86 [2] = assay: Marine isolate swarming, strain R86
Protocol: (§4) Serratia liquefaciens was grown in liquid LB medium at room temperature to an optical density of 0.3 at 450 nm and stable inoculated onto LB agar (0.7% agar) plates. Plates were incubated at 30° C. and observed regularly for swarming behaviour. The effect on swarming of furanone compounds was tested by adding (after sterilisation and cooling of the agar) compounds 1-13 (FIG. 3). in the concentration range of 5-100 μg/ml, to the plates.
as §3

Vibrio harveyi [3] = assay: Vibrio harveyi bioluminescence assay; conditions: 100 μg/ml, visual inspection of agar plates
Protocol: (§5) Initial assays for both strains of Vibrio were streaked onto LB agar plates (with 2% NaCl) with and without furanone compounds 1-4 at 5-100 μg/ml. Bioluminescence of the plates was visually assessed after 24 hours of incubation at room temperature. In subsequent assays, both strains were grown in liquid culture in the presence of furanones. Bioluminescence was assayed via a luminometer. The effects of furanones on growth of both strains were assayed as above.

Pseudomonas aeruginosa [4] = assay: Pseudomonas aeruginosa (elastase) assay; conditions: 100 μg/ml in elastin agar
Protocol: (§6) Inoculants from precultures were streaked onto Peptone-Tryptic Soy Broth agar containing 0.3% elastin. Plates were incubated at 37° C. and observed for hydrolysis of the elastin. The effect of furanone compounds was assess by adding compounds 1-4 (100 μg/ml) to the plates and comparing zones of hydrolysis in plates with and without the compounds.

strain R130 [5] = assay: Marine isolate swarming, strain R130
Protocol: as §4, §3

strain V54 [6] = assay: Marine isolate growth in liquid media, strain V54
Protocol: as §2, §3

strain R12 [7] = assay: Marine isolate swimming, strain R12
[8] = tested on: Chromobacterium violencia mutant negative for the HSL auto inducer; assay: Chromobacterium violencia (indigo) assay; conditions: for Effect on HSL phenotype: indigo formation: Chromobacterium violencia, 100 μg/ml; for Stimulation of indigo production by the compound itself: indigo negative Chromobacterium violencia mutant, addition of compound
Protocol: (§7) A mutant of Chromobacterium violencia negative for the HSL auto inducer was used in the assay. The strain was pour plated in LB medium at high density and wells were punched after the media had set. Sterile, filtered supernatants from various HSL producing strains were added to the wells. Plates were incubated at 30° C. and observed for the formation of purple zones (due to […]) around the wells. The effects of furanone compounds 1 and 2 (FIG. 3) were assessed by running this assay on plates of LB medium containing furanone compounds at a concentration of 100 μg/ml. The effects of the compounds on growth of Chromobacterium were assessed as above.

strain V21 [9] = assay: Marine isolate growth in liquid media, strain V21
Protocol: as §2, §3

strain V21 [10] = assay: Marine isolate swarming, strain V21
Protocol: as §4, §3

Vibrio fisheri [11] = assay: Vibrio fisheri bioluminescence assay; conditions: 100 μg/ml, visual inspection of agar plates
Protocol: as §5

strain V55 [12] = assay: Marine isolate growth in liquid media, strain V55
Protocol: as §2, §3

strain R12 [13] = assay: Marine isolate swarming, strain R12
Protocol: as §4, §3

strain R86 [14] = assay: Marine isolate swimming, strain R86
Vibrio harveyi [15] = assay: Growth of Vibrio harveyi
Protocol: as §2, §5

[16] = tested on: Chromobacterium violencia; assay: Growth of Chromobacterium violencia; conditions: 100 μg/ml
Protocol: as §2, §7

Serratia liquefaciens [17] = assay: Serratia liquefaciens swarming assay; conditions: 5-100 μg/ml in LB agar (0.7%) plates
Protocol: as §4

strain V54 [18] = assay: Marine isolate swarming, strain V54
Protocol: as §4, §3

Serratia liquefaciens [19] = assay: Growth of Serratia liquefaciens in liquid LB medium; conditions: 100 μg/ml
Protocol: as §2

strain R12 [20] = assay: Marine isolate growth in liquid media, strain R12
Protocol: as §2, §3

Vibrio fisheri [21] = assay: Growth of Vibrio fisheri
Protocol: as §2, §5

strain V21 [22] = assay: Marine isolate swimming, strain V21
strain R130 [23] = assay: Marine isolate swimming, strain R130
strain R86 [24] = assay: Marine isolate growth in liquid media, strain R86
Protocol: as §2, §3

strain V55 [25] = assay: Marine isolate swarming, strain V55
Protocol: as §4, §3

strain V55 [26] = assay: Marine isolate swimming, strain V55
strain V54 [27] = assay: Marine isolate swimming, strain V54
Pseudomonas aeruginosa [28] = assay: Growth of Pseudomonas aeruginosa on plates; conditions: 100 μg/ml
Protocol: as §6

| SMILES | width of inhibition zone (Helminthosporium sp.; amount added 0.1 μg) | width of inhibition zone (Helminthosporium sp.; amount added 1 μg) | width of inhibition zone (Helminthosporium sp.; amount added 10 μg) | width of inhibition zone (Helminthosporium sp.; amount added 100 μg) | width of inhibition zone (Candida albicans; amount added 0.1 μg) | width of inhibition zone (Candida albicans; amount added 1 μg) | width of inhibition zone (Candida albicans; amount added 10 μg) | width of inhibition zone (Candida albicans; amount added 100 μg) | Minimum inhibitory concentration, Growth (strain R130 [1]) | Minimum inhibitory concentration, Swarming (strain R86 [2]) | Effect on HSL phenotype: luminescence (Vibrio harveyi [3]) | Effect on HSL phenotype: elastase (Pseudomonas aeruginosa [4]) | Minimum inhibitory concentration, Swarming (strain R130 [5]) | Minimum inhibitory concentration, Growth (strain V54 [6]) | Minimum inhibitory concentration, Swimming (strain R12 [7]) | Effect on HSL phenotype: indigo formation [8] | Stimulation of indigo production by the compound itself [8] | Minimum inhibitory concentration, Growth (strain V21 [9]) | Minimum inhibitory concentration, Swarming (strain V21 [10]) | Effect on HSL phenotype: luminescence (Vibrio fisheri [11]) | other results |
| --- | --- | --- | --- | --- | --- | --- | --- | --- | --- | --- | --- | --- | --- | --- | --- | --- | --- | --- | --- | --- | --- |
| C[C@@H]1[C@H](O)[C@@H](C)/C=C/C=C/C=C/C=C/C=C/C=C/C=C/[C@H](O[C@@H]2O[C@H](C)[C@@H](O)[C@H](N)[C@@H]2O)C[C@@H]2O[C@](O)(C[C@@H](O)C[C@@H](O)[C@H](O)CC[C@@H](O)C[C@@H](O)CC(=O)O[C@H]1C)C[C@H](O)[C@H]2C(=O)O [Amphotericin B, reference compound] | 2 mm | 6 mm | 6-8 mm | 7-10 mm | 2-4 mm | 5-7 mm | 6-10 mm | 1.14 mm |  |  |  |  |  |  |  |  |  |  |  |  |  |
| CCCCC1=C(Br)C(=C(Br)Br)OC1=O [Compound 1] | 0 mm | 0 mm | 2-5 mm | 20 mm | 0 mm | 0 mm | 0 mm | 1-2 mm | >50 µg/mL | 25 µg/mL (≈ 64.3 µM) | inhibit | stimulated | 25 µg/mL (≈ 64.3 µM) | >50 µg/mL | >50 µg/mL | inhibit | do not stimulate | 25 µg/mL (≈ 64.3 µM) | 5 µg/mL (≈ 12.9 µM) | inhibit | Minimum inhibitory concentration, Growth (strain V55 [12]): >50 µg/mL; Minimum inhibitory concentration, Swarming (strain R12 [13]): 5 µg/mL (≈ 12.9 µM); Minimum inhibitory concentration, Swimming (strain R86 [14]): 50 µg/mL (≈ 129 µM); Effect on bacterial growth (Vibrio harveyi [15]): no effect; Effect on bacterial growth [16]: no effect; Effect on HSL phenotype: swarming (Serratia liquefaciens [17]): inhibit; Minimum inhibitory concentration, Swarming (strain V54 [18]): 25 µg/mL (≈ 64.3 µM); Effect on bacterial growth (Serratia liquefaciens [19]): no effect; Minimum inhibitory concentration, Growth (strain R12 [20]): >50 µg/mL; Effect on bacterial growth (Vibrio fisheri [21]): no effect; Minimum inhibitory concentration, Swimming (strain V21 [22]): 25 µg/mL (≈ 64.3 µM); Minimum inhibitory concentration, Swimming (strain R130 [23]): >50 µg/mL; Minimum inhibitory concentration, Growth (strain R86 [24]): >50 µg/mL; Minimum inhibitory concentration, Swarming (strain V55 [25]): 5 µg/mL (≈ 12.9 µM); Minimum inhibitory concentration, Swimming (strain V55 [26]): 5 µg/mL (≈ 12.9 µM); Minimum inhibitory concentration, Swimming (strain V54 [27]): 5 µg/mL (≈ 12.9 µM) |
| CCCCC1=C(Br)C(=CBr)OC1=O [Compound 2] | 0 mm | 0 mm | 2-4 mm | 20 mm | 0 mm | 0 mm | 0 mm | 2-3 mm | >50 µg/mL | 5 µg/mL (≈ 16.1 µM) | inhibit | stimulated | 25 µg/mL (≈ 80.6 µM) | >50 µg/mL | >50 µg/mL | inhibit | do not stimulate | 25 µg/mL (≈ 80.6 µM) | 5 µg/mL (≈ 16.1 µM) | inhibit | Minimum inhibitory concentration, Growth (strain V55 [12]): >50 µg/mL; Minimum inhibitory concentration, Swarming (strain R12 [13]): 5 µg/mL (≈ 16.1 µM); Minimum inhibitory concentration, Swimming (strain R86 [14]): >50 µg/mL; Effect on bacterial growth (Vibrio harveyi [15]): no effect; Effect on bacterial growth [16]: no effect; Effect on HSL phenotype: swarming (Serratia liquefaciens [17]): inhibit; Minimum inhibitory concentration, Swarming (strain V54 [18]): 5 µg/mL (≈ 16.1 µM); Effect on bacterial growth (Serratia liquefaciens [19]): no effect; Effect on bacterial growth (Pseudomonas aeruginosa [28]): no detectable effect; Minimum inhibitory concentration, Growth (strain R12 [20]): >50 µg/mL; Effect on bacterial growth (Vibrio fisheri [21]): no effect; Minimum inhibitory concentration, Swimming (strain V21 [22]): 25 µg/mL (≈ 80.6 µM); Minimum inhibitory concentration, Swimming (strain R130 [23]): >50 µg/mL; Minimum inhibitory concentration, Growth (strain R86 [24]): >50 µg/mL; Minimum inhibitory concentration, Swarming (strain V55 [25]): 5 µg/mL (≈ 16.1 µM); Minimum inhibitory concentration, Swimming (strain V55 [26]): 5 µg/mL (≈ 16.1 µM); Minimum inhibitory concentration, Swimming (strain V54 [27]): 5 µg/mL (≈ 16.1 µM) |
| CCCC(OC(C)=O)C1=C(Br)C(=CI)OC1=O (stereo not drawn) [Compound 5] | 0 mm | 2-4 mm | 9-13 mm | 20 mm | 0 mm | 0 mm | 1 mm | 3-8 mm |  |  |  |  |  |  |  |  |  |  |  |  |  |
| CCCCC1=CC(=C(Br)Br)OC1=O [Compound 8] | 0 mm | 0 mm | 0 mm | 20 mm | 0 mm | 0 mm | 0 mm | 0 mm |  |  |  |  |  |  |  |  |  |  |  |  |  |
| CCCCCCC1=CC(=C(Br)Br)OC1=O [Compound 13] | 0 mm | 0 mm | 0 mm | 0 mm | 0 mm | 0 mm | 0 mm | 1 mm |  |  |  |  |  |  |  |  |  |  |  |  |  |
